Like-named read-outs stand apart in the source and are kept apart here.
Key:
ACV-resistant HSV-1 = ACV-resistant HSV-1 infection lethal model in nude mice; assay type: in vivo, nude mouse (CD-1(ICR)-nu/nu); details: 100 mg/kg oral twice a day for 15 days; for death suppressing effect (in words): 17 days after infection
Protocol: ACV-resistant HSV-1 (3×10^6 pfu) was inoculated into the peritoneal cavity of each nude mouse (CD-1(ICR)-nu/nu, […], female, Charles River Japan) to cause infection with the virus. Each compound to be tested was made into a methyl cellulose suspension and orally administered at a dose of 100 mg/kg, twice a day for 15 days starting 1 hour after the infection (from 0 to 14 days after the infection).
During 17 days after the infection, death of the mice caused by ACV-resistant HSV-1 infection was observed every day, and the number of survived animals was counted.

[1] = system: ACV-resistant VZV (Kanno-Br^ACV-R strain); assay: Anti-ACV-resistant VZV activity assay (plaque reduction); assay type: cell-based, varicella zoster virus (VZV); details: Human alphaherpesvirus 3, HEF, read-out: EC50, concentration which inhibits 50% of the number of plaques (Example 1)
Protocol: This assay was carried out in reference to the method described by Shigeta S. in The Journal of Infectious Diseases, 147, 3, 576-584, (1983). Specifically, 10,000 cells of human embryonic fibroblast (HEF) were inoculated into a 96 well microtiter plate using a growth medium (Eagle MEM (Nissui) supplemented with 10% (v/v) fetal bovine serum (FBS, Sigma)) and cultured at 37° C. for 4 days under 5% CO2 until they became a monolayer. […] The plate was centrifuged at room temperature at 2000 rpm for 20 minutes and then incubated at 37° C. for 3 hours under 5% CO2 for infection with VZV. After washing three times with the maintenance medium 100 μl of each test drug diluted to an appropriate concentration with the maintenance medium was added to each well. After culturing the cells at 37° C. for 3 to 4 days under 5% CO2, 10% formalin/PBS was added thereto in 100 μl/well portions, and the cells were fixed for 2 to 3 hours. The fixing liquid and culture supernatant were discarded and the plate was washed with water, and then staining was carried out for 2 to 3 minutes by adding a staining liquid (0.025% Crystal Violet) in 50 μl/well portions, and the plate was washed with water and dried at 37° C. The HEF cells infected with VZV cause cell death, and plaques consisting of the dead cells are formed in the mono-layered HEF cells.

[2] = system: ACV-resistant HSV-1 (A4-3^ACV-R strain); assay: Anti-ACV-resistant HSV-1 activity assay (plaque reduction); assay type: cell-based
Protocol: A total of from 100,000 to 150,000 cells of an African green monkey kidney cell (Vero cell) were inoculated into a 24 well plate using a growth medium (Eagle MEM (Nissui) supplemented with 10% FBS) and cultured at 37° C. for 3 to 4 days under 5% CO2 until they became a monolayer. After washing the cells with a maintenance medium, ACV-resistant HSV-1 (A4-3^ACV-R strain) which had been diluted with the maintenance medium (Eagle MEM supplemented with 2% FBS) to a viral titer of from 100 to 250 pfu/200 μl was inoculated therein in 200 μl/well portions. The plate was centrifuged at room temperature at 1500 rpm for 40 minutes and then incubated at 37° C. for 1 hour under 5% CO2 for infection with HSV-1. After washing three times with the maintenance medium, 100 μl of each test drug diluted to an appropriate concentration with the maintenance medium was added to each well. After culturing the cells at 37° C. for 3 to 4 days under 5% CO2, 10% formalin/PBS was added thereto in 200 μl/well portions, and the cells were fixed for 2 to 3 hours. The fixing liquid and culture supernatant were discarded and the plate was washed with water, and then staining was carried out for 2 to 3 minutes by adding a staining liquid (0.025% Crystal Violet) in 100 μl/well portions, and the plate was washed with water and dried at 37° C. The Vero cells infected with HSV-1 cause cell death, and plaques consisting of the dead cells are formed in the mono-layered Vero cells.

HSV-1 strain WT-51 = assay: Cutaneous HSV-1 infection mouse model; assay type: in vivo, HR-1 hairless mouse; details: oral, methyl cellulose suspension, 10 mg/kg twice a day for 5 days, scores for 17 days
Protocol: Using a cutaneous HSV-1 infection mouse model prepared in reference to the method of H. Machida et al. (Antiviral Res., 1992, 17, 133-143), the in vivo […] of the compounds of the present invention was tested using an animal model. The skin of each HR-1 hairless mouse [female, 7 weeks of age] was scratched lengthwise and breadthwise several times using a needle and a virus suspension (HSV-1 strain WT-51, 1.5×10^4 PFU/15 μl) was dropped to the scarified region for infection, while anesthetized with diethyl ether.
Tested compounds were administered orally as a methyl cellulose suspension, except for compounds marked with asterisk which were dissolved in 20% Cremophor EL (Nacalai Tesque)/20% polyethylene glycol (PEG) 400/60% H2O solution, starting at 3 hours after the infection, and then at a dose of 10 mg/kg twice a day for 5 days. The symptom of the skin lesion caused by HSV-1 infection were classified in the following scores for 17 days:
Score 0: no signs of infection.
Score 1: localized, barely perceptible small vesicles.
Score 2: slight vesicle spread.
Score 3: large patches of vesicles formed.
Score 4: zosteriform vesicles.
Score 5: large patches of ulcers formed.
Score 6: zosteriform with severe large ulcers.
Score 7: hind limb paralysis or death.
The AUC value was calculated from each group's mean disease score, and the disease inhibitory rate of the group administered with each test compound to the placebo group was calculated using the AUC.

[3] = Human alphaherpesvirus 1, Vero, read-out: EC50, concentration which inhibits 50% of the number of plaques (Example 2), ACV-resistant HSV-1 A4-3 ACV-R strain in Vero cells

With `Cc1cccc(C)c1N(CC(=O)Nc1ccc(-c2ncon2)cc1)C(=O)C1CCS(=O)(=O)CC1` [Preparation 27, N-(2,6-dimethylphenyl)-N-(2-{[4-(1,2,4-oxadiazol-3-yl)phenyl]amino}-2-oxoethyl)tetrahydro-2H-thiopyran-4-carboxamide 1,1-dioxide] the “death suppressing effect (in words)” value (ACV-resistant HSV-1) was “completely suppressed death of the mice”, the “The number of survived animals (n = 10)” value (ACV-resistant HSV-1; day 0 after infection) was 10 and the “The number of survived animals (n = 10)” value (ACV-resistant HSV-1; day 1 after infection) was 10. The “The number of survived animals (n = 10)” value (ACV-resistant HSV-1; day 2 after infection) was 10, the “The number of survived animals (n = 10)” value (ACV-resistant HSV-1; day 4 after infection) was 10 and the “The number of survived animals (n = 10)” value (ACV-resistant HSV-1; day 5 after infection) was 10. The “The number of survived animals (n = 10)” value (ACV-resistant HSV-1; day 6 after infection) was 10, the “The number of survived animals (n = 10)” value (ACV-resistant HSV-1; day 7 after infection) was 10 and the “The number of survived animals (n = 10)” value (ACV-resistant HSV-1; day 8 after infection) was 10. For the same molecule, the “The number of survived animals (n = 10)” value (ACV-resistant HSV-1; day 9 after infection) was 10, the “The number of survived animals (n = 10)” value (ACV-resistant HSV-1; day 10 after infection) was 10 and the “The number of survived animals (n = 10)” value (ACV-resistant HSV-1; day 11 after infection) was 10. For the same molecule, the “The number of survived animals (n = 10)” value (ACV-resistant HSV-1; day 12 after infection) was 10, the “The number of survived animals (n = 10)” value (ACV-resistant HSV-1; day 14 after infection) was 10 and the “The number of survived animals (n = 10)” value (ACV-resistant HSV-1; day 16 after infection) was 10. For the same molecule, the “The number of survived animals (n = 10)” value (ACV-resistant HSV-1; day 17 after infection) was 10, the EC50 [1] was 82 nM and the EC50 [2, 3] was 68 nM.
For `Cc1ccc(N(CC(=O)Nc2ccc(-c3cocn3)cc2)C(=O)C2CCS(=O)(=O)CC2)cc1` [Preparation 2, N-(4-methylphenyl)-N-(2-{[4-(1,3-oxazol-4-yl)phenyl]amino}-2-oxoethyl)tetrahydro-2H-thiopyran-4-carboxamide 1,1-dioxide], the “death suppressing effect (in words)” value (ACV-resistant HSV-1) was “completely suppressed death of the mice”, the “The number of survived animals (n = 10)” value (ACV-resistant HSV-1; day 0 after infection) was 10 and the “The number of survived animals (n = 10)” value (ACV-resistant HSV-1; day 1 after infection) was 10. The “The number of survived animals (n = 10)” value (ACV-resistant HSV-1; day 2 after infection) was 10, the “The number of survived animals (n = 10)” value (ACV-resistant HSV-1; day 4 after infection) was 10 and the “The number of survived animals (n = 10)” value (ACV-resistant HSV-1; day 5 after infection) was 10. The “The number of survived animals (n = 10)” value (ACV-resistant HSV-1; day 6 after infection) was 10, the “The number of survived animals (n = 10)” value (ACV-resistant HSV-1; day 7 after infection) was 10 and the “The number of survived animals (n = 10)” value (ACV-resistant HSV-1; day 8 after infection) was 10. For the same molecule, the “The number of survived animals (n = 10)” value (ACV-resistant HSV-1; day 9 after infection) was 10, the “The number of survived animals (n = 10)” value (ACV-resistant HSV-1; day 10 after infection) was 10 and the “The number of survived animals (n = 10)” value (ACV-resistant HSV-1; day 11 after infection) was 10. For the same molecule, the “The number of survived animals (n = 10)” value (ACV-resistant HSV-1; day 12 after infection) was 10, the “The number of survived animals (n = 10)” value (ACV-resistant HSV-1; day 14 after infection) was 10 and the “The number of survived animals (n = 10)” value (ACV-resistant HSV-1; day 16 after infection) was 10. The “The number of survived animals (n = 10)” value (ACV-resistant HSV-1; day 17 after infection) was 10, the EC50 [1] was 35 nM and the EC50 [2, 3] was 35 nM.
`Nc1nc2c(ncn2COCCO)c(=O)[nH]1` [ACV, acyclovir] showed an EC50 [2, 3] of 68000 nM and an EC50 ([2]; read-out: EC50, concentration which inhibits 50% of the number of plaques (Example 2), ACV-resistant HSV-1 A4-3 ACV-R strain in Vero cells) of 120000 nM.
`Cc1cccc(N(CC(=O)Nc2ccc(-c3cocn3)cc2)C(=O)C2CCS(=O)(=O)CC2)c1` [Preparation 3, N-(3-methylphenyl)-N-(2-{[4-(1,3-oxazol-4-yl)phenyl]amino}-2-oxoethyl)tetrahydro-2H-thiopyran-4-carboxamide 1,1-dioxide] was tested, and the “Inhibition ratio (%) (disease inhibitory rate vs placebo from AUC of mean disease score)” value (HSV-1 strain WT-51) was 70%.
With `Cc1cccc(N(CC(=O)Nc2ccc(-c3ncon3)cc2)C(=O)C2CCS(=O)(=O)CC2)c1C` [Preparation 24, N-(2,3-dimethylphenyl)-N-(2-{[4-(1,2,4-oxadiazol-3-yl)phenyl]amino}-2-oxoethyl)tetrahydro-2H-thiopyran-4-carboxamide 1,1-dioxide] the “Inhibition ratio (%) (disease inhibitory rate vs placebo from AUC of mean disease score)” value (HSV-1 strain WT-51) was 89%.
